The subject of series [1] is P. falciparum multidrug-resistant Dd2 clone B2. In words: In vitro susceptibility of P. falciparum, flow cytometry after 72 hours. Type of series: cell-based, Plasmodium falciparum. As to conditions: P. falciparum Dd2 clone B2, 72 hours; read-out: EC50 (parasite growth). The procedure: After 72 hours, parasite growth was assessed using flow cytometry on an Accuri C6 cytometer with parasites stained with SYBR green I and MitoTracker Deep Red. Compound CB-27 was tested in six independent experiments with technical replicates. The percentage of parasite growth was curve fitted against log-transformed drug concentrations and the EC50 was calculated using GraphPad Prism 6 software.
A general note: A flow cytometer gives signals particle by particle.

Another series has as its system PbGST. In words: GST inhibition (CDNB/GSH) in crude P. berghei protein extract. The series is classed as biochemical, Plasmodium berghei. As to conditions: crude P. berghei protein extract, 0, 1, 10, and 50 μM. The procedure:
Materials and methods. […] Parasite extracts were prepared and the pellets containing proteins were resuspended in buffer (3.5 mM MgCl2, 110 mM KCl, 40 mM NaCl, 20 mM HEPES, 6 mM EDTA, pH 7.4) with protease inhibitors (0.01 mg of leupeptin A, 0.001 mg of pepstatin A, 0.35 mg of PMSF). The parasite pellets were lysed by three freeze/thaw cycles (liquid nitrogen and 37° C. water bath) and protein content was determined using Bio-Rad DC Protein Assay. […] . The reaction was initiated by the addition of 1 mM GSH and the formation of S-(2,4-dinitrophenyl)glutathione was monitored spectrophotometrically at 340 nm (ε340 nm=0.0096 μM^−1cm^−1) using the SpectraMax M3 Microplate Reader (Molecular Devices).

Another series concerns the target T1, human placenta GST (Homo sapiens, UniProt P09211).
T1 construct: from tissue; host or cells: human placenta
In words: GST inhibition, human placenta GST. The series is classed as biochemical. As to conditions: human placenta GST, 0, 1, 10, and 50 μM.

Another series deals with mouse erythrocytes. In words: Red blood cell lysis assay. As to conditions: mouse erythrocytes 1% hematocrit, 24 hours, 0.2-100× fold EC50. Type of series: cell-based. The source says:
Materials and methods. Random-bred Swiss albino CD-1 female mice (Charles River Laboratories, Wilmington, Mass., USA) from 6-8 weeks old were used for the study. All mice procedures were approved by the Institutional Animal Care and Use Committee under the protocol number 2480108 at the AAALAC accredited University of Puerto Rico-Medical Sciences Campus Animal Resources Center. The mice work was done in strict accordance with the “Guide for the Care and Use of Laboratory Animals” (National-Research-Council, Current Edition) and regulations of the PHS Policy on Humane Care and Use of Laboratory Animals. Mice were acclimated for 1 week before initiation of experiments.
Compounds were analyzed at 10 serial dilutions using fresh mouse erythrocytes at 1% hematocrit in Dulbecco's PBS (Gibco®) in V-bottom microplates (Corning® 96 well TC-treated microplate). The plates were incubated for 24 hours at 37° C. followed by centrifugation at 2,000 rpm for 5 min, and 50 μl of supernatant was transferred to a fresh flat-bottom microplate (BD Falcon®). The amount of hemoglobin release in the supernatant was determined using the QuantiChrom™ Hemoglobin Assay Kit (DIHB-250; BioAssay Systems) by measuring the absorbance at 400 nm following the manufacturer's instructions. Saponin at 100 μg/ml was used as a positive control for 100% cell lysis, blood (1% hematocrit) with Dulbecco's Phosphate-Buffered Saline (DPBS) as a negative control for no cell lysis, and DPBS as a blank. Compounds were tested in three independent experiments in triplicate each.

Each structure is given as a SMILES string.

T1 sequence (P09211 2-210 limits assumed): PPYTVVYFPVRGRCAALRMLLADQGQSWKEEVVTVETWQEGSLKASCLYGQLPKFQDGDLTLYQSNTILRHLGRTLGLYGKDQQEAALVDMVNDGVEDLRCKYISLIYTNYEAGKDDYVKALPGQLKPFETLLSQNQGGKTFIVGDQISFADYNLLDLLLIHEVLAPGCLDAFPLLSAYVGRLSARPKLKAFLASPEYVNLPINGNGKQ

Consider `O=C(NN=Cc1c(O)ccc2ccccc12)c1nc(-c2ccccc2)cc(-c2ccccc2)n1` [CB-27], for which the concentration for a half-maximal effect (EC50) in series [1] came to 958 nM. Moreover, in the series with PbGST, the “inhibition of PbGST activity” value was “concentration-dependent inhibition”. Also, the “inhibition of human GST activity” value at human placenta GST is recorded as “does not inhibit”. In addition, the “hemolysis (lytic activity)” value in the series with mouse erythrocytes is “did not hemolyze erythrocytes”.

For the compound `O=C(N/N=C/c1c(O)ccc2ccccc12)c1cc([N+](=O)[O-])cc([N+](=O)[O-])c1` [CB-61], the “hemolysis (lytic activity)” value in the series with mouse erythrocytes is reported as “did not hemolyze erythrocytes”.

Regarding `COc1cccc(/C=N/NC(=O)c2nc(-c3ccccc3)cc(-c3ccccc3)n2)c1O` [CB-41], in the series with mouse erythrocytes, the “hemolysis (lytic activity)” value is on record as “did not hemolyze erythrocytes”.

Consider `COc1cccc(C=NNC(=O)c2cc(-c3ccccc3)nc3ccccc23)c1O` [CB-58], for which, in the series on mouse erythrocytes, the “hemolysis (lytic activity)” value is recorded as “did not hemolyze erythrocytes”.

Consider `O=C(Nc1cc(Cl)ccc1O)c1cc2nc(-c3ccccc3)cc(-c3ccccc3)n2n1` [CB-59], for which the “hemolysis (lytic activity)” value with mouse erythrocytes is “did not hemolyze erythrocytes”.

Consider `O=C(N/N=C/c1ccccc1O)c1cc(-c2ccccc2)nc2ccccc12` [CB-53], for which the “hemolysis (lytic activity)” value in the series with mouse erythrocytes was “did not hemolyze erythrocytes”.

Turning to `O=C(N/N=C/c1cc(Br)ccc1O)/C(=C/C=C/c1ccccc1)NC(=O)c1ccccc1` [CB-50], the “hemolysis (lytic activity)” value in the series on mouse erythrocytes was “did not hemolyze erythrocytes”.

As a reminder, the EC50 is the concentration that produces a half-maximal response.
